Experimental data: patent publication US20140031278A1, “Novel Glucagon Analogues” (NOVO NORDISK A/S, priority 2011, published 2014)
*1 amine or outer side, *2 acyl side, *3 side chain or, on linkers, in order; H or OH if unused. Where a SMILES comes first, the peptide text is derived from it. Side-chain parts run from the residue outwards. The star is where a group is joined. γGlu = O=C(O)[C@H](CCC(=O)[*:2])N[*:1]; Pentanoyl = CCCCC(=O)*

What follows are compounds tested against T1, glucagon receptor (Homo sapiens, UniProt P47871) (assay: Assay (I) Glucagon activity (cAMP biosensor, FLIPR)). Details: HEK-293 cells with cloned glucagon receptor and cAMP biosensor; end point after 6 minutes.
T1 construct: expressed in transfected cells
T1 sequence (P47871 26-477): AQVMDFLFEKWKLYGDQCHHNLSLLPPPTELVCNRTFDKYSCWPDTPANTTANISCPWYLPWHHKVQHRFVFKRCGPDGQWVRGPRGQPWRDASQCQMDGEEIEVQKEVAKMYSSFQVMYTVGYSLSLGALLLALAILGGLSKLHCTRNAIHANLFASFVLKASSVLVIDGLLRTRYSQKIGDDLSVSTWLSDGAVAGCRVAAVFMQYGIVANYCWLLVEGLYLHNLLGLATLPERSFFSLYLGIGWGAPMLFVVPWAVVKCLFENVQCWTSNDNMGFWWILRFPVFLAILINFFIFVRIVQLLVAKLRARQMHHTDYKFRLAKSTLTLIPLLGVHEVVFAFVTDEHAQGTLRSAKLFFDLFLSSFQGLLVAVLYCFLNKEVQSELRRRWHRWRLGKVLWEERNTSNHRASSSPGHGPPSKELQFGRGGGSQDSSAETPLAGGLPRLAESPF
Format: cell-based
Procedure: The glucagon receptor was cloned into HEK-293 cells having a membrane bound cAMP biosensor (ACTOne™). The cells (14000 per well) were incubated (37° C., 5% CO2) overnight in 384-well plates. Next day the cells were loaded with a calcium responsive dye that only distributed into the cytoplasm. Probenecid, an inhibitor of the organic anion transporter, was added to prevent the dye from leaving the cell. A PDE inhibitor was added to prevent formatted cAMP from being degraded, The plates were placed into a […] and the glucagon analogues were added. End point data were collected after 6 minutes. An increase in intracellular cAMP was proportional to an increased in calcium concentrations in the cytoplasm. When calcium was bound the dry a fluorescence signal was generated. EC50-values were calculated in Prism5.
Work on `CC(C)C[C@H](NC(=O)[C@H](Cc1ccc(O)cc1)NC(=O)[C@H](CCCCN)NC(=O)[C@H](CO)NC(=O)[C@H](Cc1ccc(O)cc1)NC(=O)[C@H](CC(=O)O)NC(=O)[C@H](CO)NC(=O)[C@@H](NC(=O)[C@H](Cc1ccccc1)NC(=O)[C@@H](NC(=O)CNC(=O)[C@H](Cc1c[nH]cn1)NC(=O)[C@H](CO)NC(=O)[C@@H](N)Cc1c[nH]cn1)[C@@H](C)O)[C@@H](C)O)C(=O)N[C@@H](CCC(=O)O)C(=O)N[C@@H](CO)C(=O)N[C@@H](CCCNC(=N)N)C(=O)N[C@@H](CCCNC(=N)N)C(=O)N[C@@H](C)C(=O)N[C@@H](C)C(=O)N[C@@H](CC(=O)O)C(=O)N[C@@H](Cc1ccccc1)C(=O)N[C@H](C(=O)N[C@@H](CCCCNC(=O)CC[C@H](NC(=O)CC[C@H](NC(=O)CC[C@H](NC(=O)CC[C@H](N)C(=O)O)C(=O)O)C(=O)O)C(=O)O)C(=O)N[C@@H](Cc1c[nH]c2ccccc12)C(=O)N[C@@H](CC(C)C)C(=O)N[C@@H](CC(C)C)C(=O)N[C@@H](CO)C(=O)N[C@H](C(=O)O)[C@@H](C)O)C(C)C` [Example 5, N^ε24-[(4S)-4-[[(4S)-4-[[(4S)-4-[[(4S)-4-amino-4-carboxybutanoyl]amino]-4-carboxybutanoyl]amino]-4-carboxybutanoyl]amino]-4-carboxybutanoyl]-[His3,Glu15,Ala20,Lys24,Leu27,Ser28]-Glucagon] (H-HSHGTFTSDYSKYLESRRAADFVK([γGlu-γGlu-γGlu-γGlu])WLLST-OH) yielded an EC50 of 0.0563 nM.
`CC(=O)N[C@@H](CCC(=O)N[C@@H](CCC(=O)N[C@@H](CCC(=O)N[C@@H](CCC(=O)NCCCC[C@H](NC(=O)[C@@H](NC(=O)[C@H](Cc1ccccc1)NC(=O)[C@H](CC(=O)O)NC(=O)[C@H](CCC(N)=O)NC(=O)[C@H](C)NC(=O)[C@H](CCCNC(=N)N)NC(=O)[C@H](CCCNC(=N)N)NC(=O)[C@@H](NC(=O)[C@H](CC(=O)O)NC(=O)[C@H](CC(C)C)NC(=O)[C@H](Cc1ccc(O)cc1)NC(=O)[C@H](CCCNC(=N)N)NC(=O)[C@H](CO)NC(=O)[C@H](Cc1ccc(O)cc1)NC(=O)[C@H](CC(=O)O)NC(=O)[C@H](CO)NC(=O)[C@@H](NC(=O)[C@H](Cc1ccccc1)NC(=O)[C@@H](NC(=O)CNC(=O)[C@H](CCC(N)=O)NC(=O)[C@H](CO)NC(=O)[C@@H](N)Cc1c[nH]cn1)[C@@H](C)O)[C@@H](C)O)[C@@H](C)O)C(C)C)C(=O)N[C@@H](Cc1c[nH]c2ccccc12)C(=O)N[C@@H](CC(C)C)C(=O)N[C@@H](CC(C)C)C(=O)N[C@@H](CO)C(=O)N[C@H](C(=O)N1CCC[C@H]1C(=O)O)[C@@H](C)O)C(=O)O)C(=O)O)C(=O)O)C(=O)O` [Example 26] (H-HSQGTFTSDYSRYLDTRRAQDFVK([γGlu-γGlu-γGlu-γGlu-Ac])WLLSTP-OH) was tested, and the EC50 was 0.012 nM.
For `CC(=O)N[C@@H](CCC(=O)N[C@@H](CCC(=O)N[C@@H](CCC(=O)N[C@@H](CCC(=O)NCCCC[C@H](NC(=O)[C@@H](NC(=O)[C@H](Cc1ccccc1)NC(=O)[C@H](CC(=O)O)NC(=O)[C@H](CCC(N)=O)NC(=O)[C@H](C)NC(=O)[C@H](CCCNC(=N)N)NC(=O)[C@H](CCCNC(=N)N)NC(=O)[C@@H](NC(=O)[C@H](CC(=O)O)NC(=O)[C@H](CC(C)C)NC(=O)[C@H](Cc1ccc(O)cc1)NC(=O)[C@H](CCCCN)NC(=O)[C@H](CO)NC(=O)[C@H](Cc1ccc(O)cc1)NC(=O)[C@H](CC(=O)O)NC(=O)[C@H](CO)NC(=O)[C@@H](NC(=O)[C@H](Cc1ccccc1)NC(=O)[C@@H](NC(=O)CNC(=O)[C@H](CCC(N)=O)NC(=O)[C@H](CO)NC(=O)[C@@H](N)Cc1c[nH]cn1)[C@@H](C)O)[C@@H](C)O)C(C)C)C(C)C)C(=O)N[C@@H](Cc1c[nH]c2ccccc12)C(=O)N[C@@H](CC(C)C)C(=O)N[C@@H](CC(C)C)C(=O)N[C@@H](CC(N)=O)C(=O)N[C@H](C(=O)O)[C@@H](C)O)C(=O)O)C(=O)O)C(=O)O)C(=O)O` [Example 16, N^ε24-[(4S)-4-[[(4S)-4-[[(4S)-4-[[(4S)-4-acetamido-4-carboxybutanoyl]amino]-4-carboxybutanoyl]amino]-4-carboxybutanoyl]amino]-4-carboxybutanoyl]-[Val16,Lys24,Leu27]-Glucagon], the EC50 was 0.0065 nM.
Work on `CC[C@H](C)[C@H](NC(=O)[C@H](CC(=O)O)NC(=O)[C@H](CC(C)C)NC(=O)[C@H](Cc1ccc(O)cc1)NC(=O)[C@H](CCCNC(=N)N)NC(=O)[C@H](CO)NC(=O)[C@H](Cc1ccc(O)cc1)NC(=O)[C@H](CC(=O)O)NC(=O)[C@H](CO)NC(=O)[C@@H](NC(=O)[C@H](Cc1ccccc1)NC(=O)[C@@H](NC(=O)CNC(=O)[C@H](Cc1c[nH]cn1)NC(=O)[C@H](CO)NC(=O)[C@@H](N)Cc1c[nH]cn1)[C@@H](C)O)[C@@H](C)O)C(=O)N[C@@H](CCCNC(=N)N)C(=O)N[C@@H](CCCNC(=N)N)C(=O)N[C@@H](C)C(=O)N[C@@H](C)C(=O)N[C@@H](CC(=O)O)C(=O)N[C@@H](Cc1ccccc1)C(=O)N[C@H](C(=O)N[C@@H](CCCCNC(=O)CC[C@H](NC(=O)CC[C@H](NC(=O)CC[C@H](NC(=O)CC[C@H](N)C(=O)O)C(=O)O)C(=O)O)C(=O)O)C(=O)N[C@@H](Cc1c[nH]c2ccccc12)C(=O)N[C@@H](CC(C)C)C(=O)N[C@@H](CC(C)C)C(=O)N[C@@H](CO)C(=O)N[C@H](C(=O)O)[C@@H](C)O)C(C)C` [Example 8, N^ε24-[(4S)-4-[[(4S)-4-[[(4S)-4-[[(4S)-4-amino-4-carboxybutanoyl]amino]-4-carboxybutanoyl]amino]-4-carboxybutanoyl]amino]-4-carboxybutanoyl]-[His3,Arg12,Ile16,Ala20,Lys24,Leu27,Ser28]-Glucagon] (H-HSHGTFTSDYSRYLDIRRAADFVK([γGlu-γGlu-γGlu-γGlu])WLLST-OH) yielded an EC50 of 0.0269 nM.
For `CCCCC(=O)N[C@@H](CCC(=O)N[C@@H](CCC(=O)N[C@@H](CCC(=O)N[C@@H](CCC(=O)NCCCC[C@H](NC(=O)[C@@H](NC(=O)[C@H](Cc1ccccc1)NC(=O)[C@H](CC(=O)O)NC(=O)[C@H](C)NC(=O)[C@H](C)NC(=O)[C@H](CCCNC(=N)N)NC(=O)[C@H](CCCNC(=N)N)NC(=O)[C@H](CC(C)C)NC(=O)[C@H](CC(=O)O)NC(=O)[C@H](CC(C)C)NC(=O)[C@H](Cc1ccc(O)cc1)NC(=O)[C@H](CCCNC(=N)N)NC(=O)[C@H](CO)NC(=O)[C@H](Cc1ccc(O)cc1)NC(=O)[C@H](CC(=O)O)NC(=O)[C@H](CO)NC(=O)[C@@H](NC(=O)[C@H](Cc1ccccc1)NC(=O)[C@@H](NC(=O)CNC(=O)[C@H](CCC(N)=O)NC(=O)[C@H](CO)NC(=O)[C@@H](N)Cc1c[nH]cn1)[C@@H](C)O)[C@@H](C)O)C(C)C)C(=O)N[C@@H](Cc1c[nH]c2ccccc12)C(=O)N[C@@H](CC(C)C)C(=O)N[C@@H](CC(C)C)C(=O)N[C@@H](CO)C(=O)N[C@H](C(=O)O)[C@@H](C)O)C(=O)O)C(=O)O)C(=O)O)C(=O)O` [Example 67] (H-HSQGTFTSDYSRYLDLRRAADFVK([γGlu-γGlu-γGlu-γGlu-Pentanoyl])WLLST-OH), the EC50 was 0.022 nM.
With `CC(=O)N[C@@H](CCC(=O)N[C@@H](CCC(=O)N[C@@H](CCC(=O)N[C@@H](CCC(=O)NCCCC[C@H](NC(=O)[C@@H](NC(=O)[C@H](Cc1ccccc1)NC(=O)[C@H](CC(=O)O)NC(=O)[C@H](CCC(N)=O)NC(=O)[C@H](C)NC(=O)[C@H](CCCNC(=N)N)NC(=O)[C@H](CCCNC(=N)N)NC(=O)[C@H](Cc1c[nH]c2ccccc12)NC(=O)[C@H](CC(=O)O)NC(=O)[C@H](CC(C)C)NC(=O)[C@H](Cc1ccc(O)cc1)NC(=O)[C@H](CCCCN)NC(=O)[C@H](CO)NC(=O)[C@H](Cc1ccc(O)cc1)NC(=O)[C@H](CC(=O)O)NC(=O)[C@H](CO)NC(=O)[C@@H](NC(=O)[C@H](Cc1ccccc1)NC(=O)[C@@H](NC(=O)CNC(=O)[C@H](CCC(N)=O)NC(=O)[C@H](CO)NC(=O)[C@@H](N)Cc1c[nH]cn1)[C@@H](C)O)[C@@H](C)O)C(C)C)C(=O)N[C@@H](Cc1c[nH]c2ccccc12)C(=O)N[C@@H](CC(C)C)C(=O)N[C@@H](CC(C)C)C(=O)N[C@@H](CO)C(=O)N[C@H](C(=O)O)[C@@H](C)O)C(=O)O)C(=O)O)C(=O)O)C(=O)O` [Example 34] the EC50 was 0.0023 nM.
`CC(=O)N[C@@H](CCC(=O)N[C@@H](CCC(=O)N[C@@H](CCC(=O)N[C@@H](CCC(=O)NCCCC[C@H](NC(=O)[C@@H](NC(=O)[C@H](Cc1ccccc1)NC(=O)[C@H](CC(=O)O)NC(=O)[C@H](CCC(N)=O)NC(=O)[C@H](C)NC(=O)[C@H](CCCNC(=N)N)NC(=O)[C@H](CCCNC(=N)N)NC(=O)[C@@H](NC(=O)[C@H](CC(=O)O)NC(=O)[C@H](CC(C)C)NC(=O)[C@H](Cc1ccc(O)cc1)NC(=O)[C@H](CCCCN)NC(=O)[C@H](CO)NC(=O)[C@H](Cc1ccc(O)cc1)NC(=O)[C@H](CC(=O)O)NC(=O)[C@H](CO)NC(=O)[C@@H](NC(=O)[C@H](Cc1ccccc1)NC(=O)[C@@H](NC(=O)CNC(=O)[C@H](Cc1c[nH]cn1)NC(=O)[C@H](CO)NC(=O)[C@@H](N)Cc1c[nH]cn1)[C@@H](C)O)[C@@H](C)O)[C@@H](C)O)C(C)C)C(=O)N[C@@H](Cc1c[nH]c2ccccc12)C(=O)N[C@@H](CC(C)C)C(=O)N[C@@H](CC(C)C)C(=O)N[C@@H](CO)C(=O)N[C@H](C(=O)O)[C@@H](C)O)C(=O)O)C(=O)O)C(=O)O)C(=O)O` [Example 32, N^ε24-[(4S)-4-[[(4S)-4-[[(4S)-4-[[(4S)-4-acetamido-4-carboxybutanoyl]amino]-4-carboxybutanoyl]amino]-4-carboxybutanoyl]amino]-4-carboxybutanoyl]-[His3,Thr16,Lys24,Leu27,Ser28]-Glucagon] (H-HSHGTFTSDYSKYLDTRRAQDFVK([γGlu-γGlu-γGlu-γGlu-Ac])WLLST-OH) gave an EC50 of 0.009 nM.
